The record followed here is ChEMBL document CHEMBL3044703, “Safening efficacy of halogenated acetals, ketals and amides and relationship between the structure and effect on glutathione and glutathione S-transferases in maize” (2007).

The structures appear in SMILES notation. Calls of active or inactive are those of the source. The calls are words filed in the database; no cut-off is given here.

Assay [1] concerns Zea mays. The assay is described as follows: Increase in GST activity in Zea mays (maize) shoot at 50 uM applied to seeds incubated for 5 days by [14C]acetochlor-based liquid scintillation assay relative to control. Type of assay: functional.
The subject of assay [2] is Zea mays. The assay is described as follows: Increase in GST activity in Zea mays (maize) root at 50 uM applied to seeds incubated for 5 days by [14C]acetochlor-based liquid scintillation assay relative to control. Type of assay: functional.
In assay [3] the test system is Zea mays. The assay is described as follows: Safening activity against acetochlor-induced phytotoxicity against Zea mays (maize) assessed as increase in shoot length at 50 uM applied pre-emergence measured 14 days after treatment relative to acetochlor-treated control. The class given is functional.
The subject of assay [4] is Zea mays. The assay is described as follows: Increase in GSH content in Zea mays (maize) shoot at 50 uM applied to seeds incubated for 5 days by DNTB-based spectrophotometric analysis relative to control. Type of assay: functional.
Assay [5] deals with Zea mays. The assay is described as follows: Decrease in GST activity in Zea mays (maize) root at 50 uM applied to seeds incubated for 5 days by CDNB-based spectrophotometric analysis relative to control. Type of assay: functional, organism-based.
The subject of assay [6] is Zea mays. The assay is described as follows: Decrease in GSH content in Zea mays (maize) root at 50 uM applied to seeds incubated for 5 days by DNTB-based spectrophotometric analysis relative to control. Type of assay: functional, organism-based.
Assay [7] has as its system Zea mays. The assay is described as follows: Effect on GSH content in Zea mays (maize) shoot at 50 uM applied to seeds incubated for 5 days by DNTB-based spectrophotometric analysis relative to control. The class given is functional, organism-based.
Assay [8] relates to Zea mays. The assay is described as follows: Increase in GST activity in Zea mays (maize) root at 50 uM applied to seeds incubated for 5 days by CDNB-based spectrophotometric analysis relative to control. The class given is functional.
Assay [9] has as its system Zea mays. The assay is described as follows: Effect on GST activity in Zea mays (maize) shoot at 50 uM applied to seeds incubated for 5 days by CDNB-based spectrophotometric analysis relative to control. The class given is functional, organism-based.
Assay [10] concerns Zea mays. The assay is described as follows: Increase in GST activity in Zea mays (maize) shoot at 50 uM applied to seeds incubated for 5 days by CDNB-based spectrophotometric analysis relative to control. Type of assay: functional, organism-based.
Assay [11] deals with Zea mays. The assay is described as follows: Increase in GSH content in Zea mays (maize) root at 50 uM applied to seeds incubated for 5 days by DNTB-based spectrophotometric analysis relative to control. Type of assay: functional.
In assay [12] the test system is Zea mays. The assay is described as follows: Effect on GST activity in Zea mays (maize) root at 50 uM applied to seeds incubated for 5 days by [14C]acetochlor-based liquid scintillation assay relative to control. The class given is functional, organism-based.

As for `CCOCN(C(=O)CCl)c1c(C)cccc1CC`, the outcome in the assay on Zea mays [1] and with Zea mays [2] was Active.

On to `CCOC(CBr)OCC` [BROMOACETAL], for which the “fold change (FC)” value with Zea mays [1] stood at 3.76. In addition, the Activity with Zea mays [3] is listed as 60%. The result in the assay on Zea mays [4] and in the assay with Zea mays [5] was Active.

With `ClC(Cl)C1OCCCCCO1`, the result in the assay with Zea mays [6] was Active. Moreover, the Activity in the assay on Zea mays [3] worked out at 24%. Further, the result with Zea mays [7] was inactive. The “fold change (FC)” value in the assay on Zea mays [8] was found to be 2.

For `CCCCOC(OCCCC)C(Cl)Cl`, the Activity in the assay with Zea mays [3] was determined as 24%. In the assay with Zea mays [7], the result was inactive.

Consider `CC1(C)COC(C(Cl)Cl)OC1`, for which the result with Zea mays [6] was Active. Besides, the Activity in the assay with Zea mays [3] is 24%. Besides, the outcome with Zea mays [7] was inactive.

Take `C=CCN(CC=C)C(=O)CBr`: the outcome in the assay on Zea mays [1] and in the assay with Zea mays [2] was Active. The outcome in the assay on Zea mays [9] was inactive.

On to `CC(C)COC(C)(OCC(C)C)C(Cl)Cl`, for which the “fold change (FC)” value with Zea mays [1] is listed as 4.72. Also, the result in the assay with Zea mays [7] was inactive.

As for `CC1(C(Cl)Cl)OCCCCCO1`, the result in the assay on Zea mays [3], in the assay on Zea mays [10] and in the assay with Zea mays [4] was Active. Besides, the outcome in the assay on Zea mays [7] was inactive.

On to `CCOC(OCC)C(Cl)Cl`, for which the Activity with Zea mays [3] is listed as 24%. The result in the assay with Zea mays [7] was inactive. Further, the outcome in the assay with Zea mays [10] and in the assay with Zea mays [5] was Active.

Turning to `CC1(C(Cl)Cl)OCCO1`, the entries for the “fold change (FC)” value in the assay on Zea mays [1] and in the assay on Zea mays [2] were 3.93 and 3.64, respectively. In the assay with Zea mays [3], the Activity was determined as 64%. Besides, the outcome with Zea mays [7] was inactive. Besides, the outcome with Zea mays [10] and in the assay on Zea mays [4] was Active.

Consider `ClC(Cl)C1OCCCCCCO1`, for which the Activity with Zea mays [3] worked out at 24%. For the same compound, the outcome with Zea mays [7] was inactive. For the same compound, in the assay on Zea mays [8], the “fold change (FC)” value is reported as 4.

With `ClC(Cl)C1(c2ccccc2)OCCO1`, the “fold change (FC)” value in the assay with Zea mays [11] and in the assay on Zea mays [4] was greater than 2 each time. For the same compound, the result in the assay with Zea mays [3] and with Zea mays [10] was Active. Also, the outcome with Zea mays [7] was inactive.

As for `C=CCN(CC=C)C(=O)C(Cl)Cl` [DICHLORMID], the entries for the “fold change (FC)” value with Zea mays [11] and in the assay with Zea mays [4] were 1.65 and 1.78, respectively. For the same compound, the Activity with Zea mays [3] came out at 81%. The result in the assay with Zea mays [9] was inactive.

In the case of `ClC(Cl)C1OCCCO1`, in the assay with Zea mays [6], the result was Active. Besides, the Activity with Zea mays [3] is reported as 24%. Also, in the assay on Zea mays [7], the outcome was inactive.

As for `C=CCNC(=O)CCl` [N-ALLYL-2-CHLOROACETAMIDE], the “fold change (FC)” value in the assay with Zea mays [11] and in the assay with Zea mays [4] was 2.25 throughout. Also, the Activity in the assay with Zea mays [3] came out at 48%. Further, the result in the assay with Zea mays [9] was inactive.

Regarding `CC1(C(Cl)Cl)OCCCO1`, the Activity with Zea mays [3] turned out to be 68%. Moreover, in the assay on Zea mays [7], the result was inactive. The result in the assay with Zea mays [10] and with Zea mays [4] was Active.

Regarding `CCOC(C)(OCC)C(Cl)Cl`, the outcome in the assay on Zea mays [11], in the assay on Zea mays [7] and in the assay with Zea mays [4] was inactive. Also, the Activity in the assay with Zea mays [3] was found to be 62%.

On to `ClC(Cl)C1OCCCCO1`, for which, in the assay on Zea mays [6], the outcome was Active. In addition, in the assay on Zea mays [3], the Activity turned out to be 24%. The result in the assay on Zea mays [7] was inactive.

Turning to `ClC(Cl)C1OCCO1`, in the assay with Zea mays [6], the outcome was Active. For the same compound, the Activity with Zea mays [3] is given as 24%. Further, the result in the assay with Zea mays [7] was inactive.

On to `CC(C)COC(OCC(C)C)C(Cl)Cl`, for which, in the assay with Zea mays [3], the Activity came to 24%. Further, the result in the assay with Zea mays [7] was inactive.

Turning to `CCCOC(C)(OCCC)C(Cl)Cl`, the outcome in the assay with Zea mays [11], in the assay with Zea mays [7] and with Zea mays [4] was inactive. Besides, the Activity with Zea mays [3] turned out to be 63%.

In the case of `CC1(C)COC(C)(C(Cl)Cl)OC1`, the outcome in the assay on Zea mays [3], in the assay on Zea mays [10] and in the assay on Zea mays [4] was Active. The outcome with Zea mays [7] was inactive.

Turning to `CC1(C(Cl)Cl)OCCCCCCO1`, the outcome with Zea mays [3], with Zea mays [10] and with Zea mays [4] was Active. For the same compound, the outcome in the assay on Zea mays [7] was inactive.

Take `CC1(C(Cl)Cl)OCCCCO1`: the result in the assay with Zea mays [12] and in the assay on Zea mays [7] was inactive. In addition, the Activity in the assay with Zea mays [3] was determined as 70%. Further, the outcome in the assay on Zea mays [10] and in the assay on Zea mays [4] was Active.

As to `CCCCOC(C)(OCCCC)C(Cl)Cl`, the result in the assay on Zea mays [7] was inactive.

Consider `CCCOC(OCCC)C(Cl)Cl`, for which the Activity in the assay with Zea mays [3] is 24%. The result with Zea mays [7] was inactive.

As to `CCOC(CCl)OCC` [MONOCHLOROACETAL], the Activity with Zea mays [3] came to 24%. For the same compound, the outcome in the assay with Zea mays [4] and in the assay with Zea mays [5] was Active.

For `C=CCN(CC=C)C(=O)CCl`, the outcome in the assay with Zea mays [1] and in the assay with Zea mays [2] was Active. In addition, the result with Zea mays [9] was inactive.
